Laboratory results as given in patent US5618726A, “Biodegradable azo dyes” (priority 1994, dated 1997).

Key:
[1] = biological target: T1, horseradish peroxidase type II (Armoracia rusticana, UniProt P00433); test: Oxidation of azo dyes by horseradish peroxidase preparation; type: biochemical; conditions: pH 8, 37° C., H2O2
T1 sequence (P00433 31-338): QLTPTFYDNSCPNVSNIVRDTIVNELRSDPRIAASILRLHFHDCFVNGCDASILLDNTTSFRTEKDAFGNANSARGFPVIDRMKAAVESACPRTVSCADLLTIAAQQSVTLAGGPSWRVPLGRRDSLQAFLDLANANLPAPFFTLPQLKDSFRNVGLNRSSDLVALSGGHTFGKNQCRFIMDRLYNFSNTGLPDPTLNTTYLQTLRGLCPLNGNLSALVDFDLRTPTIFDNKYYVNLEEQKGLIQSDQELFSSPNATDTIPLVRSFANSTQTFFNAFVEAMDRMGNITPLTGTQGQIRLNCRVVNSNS
Experimental: The reaction was started with the addition of 100 μl of 50 mM H2 O2 and was followed for 1 min at 37° C. Controls were run with no addition of H2 O2 or with the addition of the hemeperoxidase inhibitor KCN (final concentration 25 μM).

[2] = system: S. chromofuscus A11 extracellular peroxidase; test: Oxidation of azo dyes by S. chromofuscus A11 crude enzyme preparation; type: biochemical, Streptomyces chromofuscus A11; conditions: pH 8, 37° C., H2O2
Experimental: Environ. Microbiol., 1988, 54:3057-3063. […] Microbiol. Biotechnol., 34:661-667. Incubation took place at 37° C. with shaking at 250 rpm. The culture supernatant was collected after 48 h incubation, and vacuum-filtered through Whatman no. 1 filter paper. The filtrate was concentrated approximately 40- to 50-fold by ultrafiltration through an Amicon ultrafiltration stirred cell (series no. 8000, Amicon Corp.) with a disc PM-10 filter (diameter, 76 mm). Protein in the concentrated filtrate was then precipitated from solution with 80% ammonium sulfate. The precipitate was collected by centrifugation (15 min, 10,000 rpm). The pellet was resuspended in 10 ml of 20 mM HEPES buffer (pH 8) and dialyzed overnight against the same buffer at 4° C. These preparations were then stored in 1-ml aliquots at -20° C. until used. Before using, the preparation was filtered through a NAP-25 Sephadex G-25 disposable column (Pharmacia) in order to separate a yellowish protein fraction from a pink low-molecular-weight fraction. The yellowish fraction was used as the source of enzyme. […] The reaction was started with the addition of 100 μl of 50 mM H2 O2 and was followed for 1 min at 37° C. Controls were run with no addition of H2 O2 or with the addition of the hemeperoxidase inhibitor KCN (final concentration 25 μM).

[3] = system: Mn(II)-peroxidase; test: Oxidation of dyes by P. chrysosporium Mn(II)-peroxidase; type: biochemical, Phanerochaete chrysosporium; conditions: crude enzyme, conditions specific for Mn(II)-peroxidase
Experimental: (§1) The peroxidase assay was carried out using a composition having a final volume of 1.0 ml. The reaction mixture contained 250 μl of 100 mM HEPES buffer (pH 8), 500 μl of 10 mM 2,4-dichlorophenol, 100 μl of 1 mM aminoantipyrine, 50 μl enzyme preparation and 100 μl 50 mM H2 O2. The reaction was initiated by the addition of hydrogen peroxide at 37° C. One unit of peroxidase activity was expressed as the amount of enzyme required for an increase of one absorbance-unit-per-minute at 510 nm. Assays of manganese peroxidase and of ligninase from P. chrysosporium were carried out as previously described by Paszczynski et al in "Manganese peroxidase of Phanerochaete chrysosporium: Purification," Methods Enzymol. 161:264-270, incorporated herein by reference. […] Biophys., 1986, 44:750-765. Preparation and assay of ligninase and manganese peroxidase from these P. chrysosporium cultures were carried out as previously reported by Paszczynski, et al., Methods Enzymol., 1988, 161:264-270. […] Purification," Methods Enzymol. 161:264-270. […] Cycle time was 10 seconds, with the last measure after three minutes of incubation.

[4] = system: ligninase; test: Oxidation of dyes by P. chrysosporium ligninase (crude preparation); type: biochemical, Phanerochaete chrysosporium; conditions: crude enzyme, conditions specific for ligninase
Experimental: as §1, with “30 seconds” for “10 seconds,”, “15 minutes. […] The reaction conditions were the same as for acid yellow 9. No decolorization” for “three minutes”, “the synthesized dyes by ligninase was detected.” for “incubation.”

[5] = system: S. diastaticus A12; type: cell-based; conditions: streptomyces diastaticus a12 culture, 336 h
Excerpt: (§2) Microbiol., 1984, 130:2905-2913.
(§3) Replicate sterile controls also were run in each experiment.

[6] = system: S. diastaticus A13; type: cell-based; conditions: streptomyces diastaticus a13 culture, 336 h
Excerpt: as §2, §3

[7] = system: S. rochei A10; type: cell-based; conditions: streptomyces rochei a10 culture, 336 h
Excerpt: as §2, §3

[8] = system: S. chromofuscus A11; conditions: for Decolorization of growth medium by S. chromofuscus A11: both 50 and 100 ppm; for Degradation (%) after Streptomyces cultivation, strain A11: streptomyces chromofuscus a11 culture, 336 h
Experimental: as §2, §3
The Streptomyces were grown on the same media and under the same conditions as previously described. […] Thus, the spectrophotometric assays for substrates 1-12 were carried out at their specific isobastic points. Degradation was calculated as percent of substrates removed from culture broth, considering the evaporation factor (around 10%).

[9] = system: Phanerochaete chrysosporium; test: Substrate removal / decolorization by P. chrysosporium culture; type: cell-based; conditions: for % Decolorization, P. chrysosporium: 14 days
Experimental: Environ. Microbiol., 1981, 42:290-296), with the addition of 75 mg adenine (6-aminopurine) and 27 mg L-phenylalanine-per-liter. This addition accelerated the growth of the fungus without inhibiting ligninase activity. […] […] Cultures were incubated at 37° C. for 7 to 15 days with shaking (250 rpm). Solid agar media were also employed.

[10] = system: Streptomyces chromofuscus; test: Mineralization of 14C-labeled dyes by shaken cultures; type: cell-based
Experimental: (§4) Agitated cultures containing 100,000 to 150,000 dpm of azo dye at a concentration of 200 mg/liter for P. chrysosporium and 50 mg/liter for S. chromofuscus were incubated at 37° C. for 20 days with shaking at 200 rpm. For each mineralization experiment six replicates-per-culture were run for P. chrysosporium and three replicates-per-culture for S. chromofuscus. Each culture flask contained a CO2 trap consisting of a small glass cup connected to the bottom of the rubber stopper. The cup contained 1 ml of 1N NaOH. Samples were taken every 2 days, and after each sampling cultures were flushed with 100% oxygen for 30 s. At the sampling time, the stopper was removed and the NaOH containing trapped CO2 was transferred to a 20-ml scintillation vial, and the cup was then rinsed twice with 1 ml of water. Two ml of rinse water were also transferred to the vial. Finally, 10 ml of Ecolite scintillation cocktail (ICN Biochemicals Inc., Irvine, Calif.) were added to each vial. Vials, after mixing, were stored in the dark for 24 h. The cpm of trapped radioactivity was then determined in a Packard Tri-Carb liquid scintillation analyzer, Model 1500, using the ^14 C quench standards and SIS numbers.
(§5) The removal of radioactivity from the media was determined by measuring the amount of ^14 C label in 0.1 ml of the medium at time 0 and 21 days for each culture. Uninoculated cultures were used as evaporation controls. […] At the end of each mineralization experiment, culture broths were acidified with 5 ml of 1M H3 PO4, fresh 1N NaOH was added to the trap, and the cultures were shaken overnight. No additional releases of ^14 CO2 were observed. The radioactivity assimilated by the cells was measured by solubilizing biomass harvested from each 21-day-old culture in an equal volume of hyamine hydroxide solution. Before solubilization, cells were washed three times with 50 ml of distilled water to remove adsorbed dyes. Ecolite 10 ml was added to the mixture, which was vortexed vigorously. To increase counting efficiency, the solution of biomass-hyamine-scintillation cocktail was further diluted 10 to 20 times with fresh Ecolite before counting.

[11] = system: P. chrysosporium; test: as above; type: cell-based, Phanerochaete chrysosporium; conditions: 21 days' growth, 200 mg/liter
Experimental: as §4
Either a charcoal-containing polyurethane sponge (Bio-Rad Laboratories, Richmond, Calif.) or 2-methoxyethanol was used to trap volatile organic compounds released during mineralization experiments. The sponge (1 cm^3) replaced the 1N NaOH solution in the small glass cap attached to the rubber stopper; other conditions were as before for the ^14 CO2 experiments. For scintillation counting, the charcoal sponges were dissolved in 1 ml of hyamine hydroxide contained in scintillation vials (1M solution in methanol; NEN Research Products, Boston, Mass.) held at 55° C. for 2 h. Ten ml of Ecolite scintillation cocktail were then added and the cpm was measured.
In the second procedure, cultures with CO2 traps were flushed with oxygen for 10 min, and the organic volatiles present were trapped in 10 ml of 2-methoxyethanol mixed with 10 ml Ecolite.
as §5

[12] = beginning concentration 100 ppm
[13] = beginning concentration 150 ppm
[14] = beginning concentration 200 ppm
[15] = beginning concentration 300 ppm

Row | Oxidation rate of azo dyes, Horseradish peroxidase [1] | Oxidation rate of azo dyes, S. chromofuscus peroxidase [2] | Oxidation rate of azo dyes, P. chrysosporium Mn-peroxidase [3] | Oxidation rate of azo dyes, P. chrysosporium Ligninase [4] | Degradation (%) after Streptomyces cultivation, strain A12 [5] | Degradation (%) after Streptomyces cultivation, strain A13 [6] | Degradation (%) after Streptomyces cultivation, strain A10 [7] | Degradation (%) after Streptomyces cultivation, strain A11 [8] | % Decolorization, P. chrysosporium ([9]; initial concn 150 ppm) | % Decolorization, P. chrysosporium ([9]; initial concn 300 ppm) | SMILES | Decolorization of growth medium by S. chromofuscus A11 [8] | Concentration of substrate after ten days cultivation with P. chrysosporium [9, 12] | Concentration of substrate after ten days cultivation with P. chrysosporium [9, 13] | Concentration of substrate after ten days cultivation with P. chrysosporium [9, 14] | Concentration of substrate after ten days cultivation with P. chrysosporium [9, 15] | other results
1 | 0.35 μmoles per minute per ml | 0.78 μmoles per minute per ml | 2.86 μmoles per minute per ml | 0.51 μmoles per minute per ml | 7% | 6% | 11% | 16% | 90% | 92% | CCC(C)c1cc(N=Nc2ccc(S(=O)(=O)O)cc2)ccc1O (centres unmarked) [compound 10] | significantly decolorized | 8.135 ppm | 15.279 ppm | 46.588 ppm | 42.897 ppm | 
2 | 0.12 μmoles per minute per ml | 0.17 μmoles per minute per ml | 0.23 μmoles per minute per ml | 0.75 μmoles per minute per ml | 1% | 1% | 2% | 3% | 38% | 27% | CCN(CC)c1ccc(N=Nc2ccc(S(=O)(=O)O)cc2)cc1 [compound 15] |  | 1.901 ppm | 10.589 ppm | 17.931 ppm | 17.791 ppm | 
3 | 0.15 μmoles per minute per ml | 0.33 μmoles per minute per ml | 1.06 μmoles per minute per ml | 1.28 μmoles per minute per ml |  |  | 4% | 9% | 70% | 34% | COc1cc(C)cc(N=Nc2ccc(S(=O)(=O)O)cc2)c1O [compound 11] |  | 6.795 ppm | 14.416 ppm | 30.075 ppm | 21.765 ppm | 
4 |  |  |  |  |  |  |  |  |  |  | COc1cc(N=Nc2ccc(N=N[14c]3[14cH][14cH][14c](S(=O)(=O)O)[14cH][14cH]3)cc2S(=O)(=O)O)ccc1O [compound 35] |  |  |  |  |  | Mineralization by the streptomycetes ([10]; 21-day incubation): mineralized
5 | 3.91 μmoles per minute per ml | 2.62 μmoles per minute per ml | 4.62 μmoles per minute per ml | 0.23 μmoles per minute per ml |  |  |  |  |  |  | O=S(=O)(O)c1ccc(N=Nc2ccc(O)c3ccccc23)cc1 [compound 32] | significantly decolorized |  |  |  |  | 
6 |  |  |  |  |  |  |  |  |  |  | O=S(=O)(O)c1ccc(N=Nc2ccc(O)c3ccccc23)cc1 [Azo dye 32, 4-(4-hydroxy-naphthylazo)-benzenesulfonic acid] |  |  |  |  |  | Percentage of radioactivity recovered in CO2, P. chrysosporium [11]: 19.7%; Percentage of radioactivity recovered in biomass (cells), P. chrysosporium [11]: 4.0%; Percentage of radioactivity removed from the medium, P. chrysosporium [11]: 29.6%; Percentage of radioactivity recovered in CO2, Streptomyces chromofuscus ([10]; 21 days' growth, 50 mg/liter): 1.1%; Percentage of radioactivity recovered in biomass (cells), Streptomyces chromofuscus ([10]; 21 days' growth, 50 mg/liter): 7.0%; Percentage of radioactivity removed from the medium, Streptomyces chromofuscus ([10]; 21 days' growth, 50 mg/liter): 22.0%
